The subject of data set [1] is Plasmodium falciparum. In words: Antiplasmodial activity against chloroquine-sensitive Plasmodium falciparum 3D7 measured after 72 hrs by DAPI staining based high throughput screening assay. The format is functional. Particulars: 3D7, 72 h.
The test system of data set [2] is Plasmodium falciparum. The data set can be described thus: Antiplasmodial activity against chloroquine-resistant Plasmodium falciparum Dd2 measured after 72 hrs by DAPI staining based high throughput screening assay. Particulars: Dd2, 72 h. The class given is functional.
Another data set concerns HEK293. In words: Growth inhibition of HEK293 cells. The format is cell-based. Particulars: Homo sapiens.
Data set [3] is described as follows: Selectivity index, ratio of IC50 for HEK293 cells to IC50 for chloroquine-resistant Plasmodium falciparum Dd2. The format is toxicity. Particulars: human; read-out: Ratio IC50.
For data set [4], the system named is Plasmodium falciparum. The data set can be described thus: Antiplasmodial activity against chloroquine-sensitive Plasmodium falciparum 3D7. The format is functional.
For data set [5], the system named is Plasmodium falciparum. The data set can be described thus: Antiplasmodial activity against chloroquine-resistant Plasmodium falciparum Dd2. The format is functional.
Data set [6] is described as follows: Growth inhibition of HEK293 cells at 120 uM relative to control. The format is cell-based. As to conditions: human, read-out: GI.
A short description of data set [7]: Growth inhibition of HEK293 cells at 100 uM relative to control. The format is cell-based. Particulars: human, read-out: GI.
Data set [8] can be described thus: Growth inhibition of HEK293 cells at 20 uM relative to control. The format is cell-based. As to conditions: human, read-out: GI.
The nature of data set [9]: Growth inhibition of HEK293 cells at 40 uM relative to control. The class given is cell-based. As to conditions: human, read-out: GI.
Data set [10] concerns Plasmodium falciparum. The data set can be described thus: Antiplasmodial activity against chloroquine-resistant Plasmodium falciparum Dd2 at 40 uM measured after 72 hrs by DAPI staining based high throughput screening assay relative to control. The format is functional.

Consider `CC(C)C[C@H]1C[C@@]2(CC[C@H]3C[C@@H]2C3(C)C)OC2=C1C(=O)C(C)(C)C(=O)C2(C)C`, for which, in the data set with Plasmodium falciparum [1], the half-maximal inhibitory concentration (IC50) stood at 6700 nM.
Regarding `CC(C)C[C@@H]1OC12C(=O)C(C)(C)C(=O)C(C)(C)C2=O`, the IC50 in the data set with Plasmodium falciparum [1] worked out at 3000 nM; with Plasmodium falciparum [2], 2530 nM; in the data set on HEK293, 15900 nM. The selectivity ratio in data set [3] is under 10.
The molecule `C=C1CC[C@H]2[C@H](CC(C)C)C3=C(O[C@]2(C)CC[C@@H]2[C@@H]1CC2(C)C)C(C)(C)C(=O)C(C)(C)C3=O` showed an IC50 in the data set on Plasmodium falciparum [1] of 11300 nM. This counts as double-digit micromolar.
With `CC(C)CC(=O)c1c(O)c2c(c3c1O[C@]1(C(C)C)OC4=C(C(=O)C(C)(C)C(=O)C4(C)C)[C@H]31)OC1=C(C(=O)C(C)(C)C(=O)C1(C)C)[C@@H]2CC(C)C`, the IC50 was found to be 1000 nM with Plasmodium falciparum [4] and 1490 nM in the data set on Plasmodium falciparum [5].
For the molecule `Cc1c2c(c(O)c3c1OC1=C(C(=O)C(C)(C)C(=O)C1(C)C)[C@@H]3CC(C)C)C(=O)C[C@@H](c1ccccc1)O2`, the half-maximal inhibitory concentration (IC50) in the data set on Plasmodium falciparum [1] stood at 10700 nM.
Same read-out and setting: as for `CC(C)[C@]12OC3=C(C(=O)C(C)(C)C(=O)C3(C)C)[C@H]1C1=C(O2)C(C)(C)C(=O)C(C)(C)C1=O`, the figure is 14000 nM.
With `Cc1c(O)c(C(=O)CCc2ccccc2)c2c(c1O)[C@@H]1C3=C(O[C@]1(C(C)C)O2)C(C)(C)C(=O)C(C)(C)C3=O`, the figures for the IC50 with Plasmodium falciparum [1], in the data set on Plasmodium falciparum [4] and in the data set on Plasmodium falciparum [5] were 1070 nM, 290 nM and 440 nM, respectively. The inhibition at 120 µM in data set [6] was determined as 85%.
For `C=C1CC[C@H]2[C@@H](CC(C)C)C3=C(O[C@]2(C)CC[C@@H]2[C@@H]1CC2(C)C)C(C)(C)C(=O)C(C)(C)C3=O`, 8900 nM corresponded to half-maximal inhibition with Plasmodium falciparum [1] (IC50).
In the data set on Plasmodium falciparum [1], `CC(C)C[C@H]1C2=C(O[C@@]3(C)C=C4[C@@H](C[C@@H]13)[C@@H](C)CC[C@@H]4C(C)C)C(C)(C)C(=O)C(C)(C)C2=O` returned a 50% inhibitory concentration (IC50) of 26900 nM. In addition, in data set [7], the inhibition at 100 µM was 68%.
The matching figures for `CC(C)CC(=O)c1c(O)cc(O)c2c1O[C@@]1(C(C)C)OC3=C(C(=O)C(C)(C)C(=O)C3(C)C)[C@@H]21`: 10500 nM and 59%.
Regarding `CC(C)CC(C1=C(O)C(C)(C)C(=O)C(C)(C)C1=O)C1=C(O)C(C)(C)C(=O)C(C)(C)C1=O`, the values for the IC50 with Plasmodium falciparum [1], in the data set with Plasmodium falciparum [4] and in the data set on Plasmodium falciparum [5] were 440 nM, 5300 nM and 8800 nM, respectively. Further, the inhibition at 120 µM in data set [6] was found to be 42%.
`CC(C)CC(=O)c1c(O)cc2c(c1O)[C@@H](CC(C)C)C1=C(O2)C(C)(C)C(=O)C(C)(C)C1=O`: the values for the IC50 in the data set on Plasmodium falciparum [1], in the data set on Plasmodium falciparum [2] and with HEK293 were 1800 nM, 4000 nM and 11400 nM, respectively. The selectivity ratio in data set [3] was under 10.
The molecule `C[C@H]1[C@H](OC(=O)CCC(=O)O)O[C@@H]2O[C@@]3(C)CC[C@H]4[C@H](C)CC[C@@H]1[C@@]24OO3` [ARTESUNATE] came in with an IC50 with Plasmodium falciparum [1] of 1 nM. Further, in [8], the inhibition at 20 µM was 94%.
Consider `COc1ccc(C[C@H](N)C(=O)N[C@H]2[C@@H](O)[C@H](n3cnc4c(N(C)C)ncnc43)O[C@@H]2CO)cc1` [PUROMYCIN], for which the values for the IC50 in the data set with Plasmodium falciparum [2] and with HEK293 were 61 nM and 399 nM, respectively.
For `CCc1nc(N)nc(N)c1-c1ccc(Cl)cc1` [PYRIMETHAMINE], the IC50 with Plasmodium falciparum [1] was 8 nM. For the same molecule, the inhibition at 40 µM in data set [9] amounted to 62%. Also, the Activity with Plasmodium falciparum [10] turned out to be 62%.
With `COc1ccc2nc3cc(Cl)ccc3c(Nc3cc(CN4CCCC4)c(O)c(CN4CCCC4)c3)c2n1` [PYRONARIDINE], the half-inhibitory concentration (IC50) with Plasmodium falciparum [1] worked out at 11.9 nM; with Plasmodium falciparum [2] it was 18 nM; with HEK293, 5220 nM.

Usually IC50 stands for the concentration that inhibits the measured activity by half. Low readings indicate greater potency, high ones weaker potency.
